The source made the active and inactive calls.
Legend:
[1] = Trypanosoma cruzi growth suppression in host cells – NIH3T3 host cells, beta-gal luminescence, confirmation (AID 2044); type: functional, cell-based;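 further: intracellular parasites grown in NIH/3T3 mouse fibroblasts as host cells; luminescent beta-galactosidase reporter signal from transgenic T. cruzi replicating inside host cells; inhibitors lower the luminescence signal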
[2] = NIH3T3 cell viability loss – ATP luminescence, mouse fibroblasts, counter-screen, dose response (AID 2010); type: functional, cell-based;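 further: cells exposed to compound for about 90 hours before reading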
[3] = biological target: T1, Replicative DNA helicase DnaB (Mycobacterium tuberculosis, UniProt P9WMR3); experiment: DnaB intein splicing inhibitors, dose response, biochemical, cell-free fluorescence (AID 449749); type: functional
T1 sequence (P9WMR3 whole entry): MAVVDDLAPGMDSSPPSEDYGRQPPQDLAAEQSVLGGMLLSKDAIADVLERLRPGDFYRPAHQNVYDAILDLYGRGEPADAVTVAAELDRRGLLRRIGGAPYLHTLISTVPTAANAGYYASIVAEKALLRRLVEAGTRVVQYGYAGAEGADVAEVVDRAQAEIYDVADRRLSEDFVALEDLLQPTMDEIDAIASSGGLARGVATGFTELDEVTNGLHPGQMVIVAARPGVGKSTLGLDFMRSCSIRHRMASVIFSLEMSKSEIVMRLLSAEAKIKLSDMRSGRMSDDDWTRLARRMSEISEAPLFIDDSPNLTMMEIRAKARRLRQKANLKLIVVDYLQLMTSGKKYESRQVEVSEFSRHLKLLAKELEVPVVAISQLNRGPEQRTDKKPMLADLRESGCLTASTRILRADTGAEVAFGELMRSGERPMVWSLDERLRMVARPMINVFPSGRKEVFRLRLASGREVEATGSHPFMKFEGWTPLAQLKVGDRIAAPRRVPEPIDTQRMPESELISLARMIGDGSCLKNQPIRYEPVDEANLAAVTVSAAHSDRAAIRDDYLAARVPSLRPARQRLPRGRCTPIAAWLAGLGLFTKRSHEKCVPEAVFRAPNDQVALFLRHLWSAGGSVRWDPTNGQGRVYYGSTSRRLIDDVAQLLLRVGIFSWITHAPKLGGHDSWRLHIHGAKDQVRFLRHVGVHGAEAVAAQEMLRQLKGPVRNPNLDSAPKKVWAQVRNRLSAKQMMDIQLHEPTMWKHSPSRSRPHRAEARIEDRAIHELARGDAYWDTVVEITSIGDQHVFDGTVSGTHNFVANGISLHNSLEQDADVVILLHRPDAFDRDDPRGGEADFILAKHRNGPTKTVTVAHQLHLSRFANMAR

[4] = biological target: T2, Protein RecA (Mycobacterium tuberculosis, UniProt P9WHJ3); experiment: Fluorescence Cell-Free Homogeneous Dose Retest to Identify Inhibitors of RecA-Intein Splicing Activity. [Related pubchem assays (depositor defined):AID2097, AID2223, AID489010, AID492950]; type: functional
T2 sequence (P9WHJ3 whole entry): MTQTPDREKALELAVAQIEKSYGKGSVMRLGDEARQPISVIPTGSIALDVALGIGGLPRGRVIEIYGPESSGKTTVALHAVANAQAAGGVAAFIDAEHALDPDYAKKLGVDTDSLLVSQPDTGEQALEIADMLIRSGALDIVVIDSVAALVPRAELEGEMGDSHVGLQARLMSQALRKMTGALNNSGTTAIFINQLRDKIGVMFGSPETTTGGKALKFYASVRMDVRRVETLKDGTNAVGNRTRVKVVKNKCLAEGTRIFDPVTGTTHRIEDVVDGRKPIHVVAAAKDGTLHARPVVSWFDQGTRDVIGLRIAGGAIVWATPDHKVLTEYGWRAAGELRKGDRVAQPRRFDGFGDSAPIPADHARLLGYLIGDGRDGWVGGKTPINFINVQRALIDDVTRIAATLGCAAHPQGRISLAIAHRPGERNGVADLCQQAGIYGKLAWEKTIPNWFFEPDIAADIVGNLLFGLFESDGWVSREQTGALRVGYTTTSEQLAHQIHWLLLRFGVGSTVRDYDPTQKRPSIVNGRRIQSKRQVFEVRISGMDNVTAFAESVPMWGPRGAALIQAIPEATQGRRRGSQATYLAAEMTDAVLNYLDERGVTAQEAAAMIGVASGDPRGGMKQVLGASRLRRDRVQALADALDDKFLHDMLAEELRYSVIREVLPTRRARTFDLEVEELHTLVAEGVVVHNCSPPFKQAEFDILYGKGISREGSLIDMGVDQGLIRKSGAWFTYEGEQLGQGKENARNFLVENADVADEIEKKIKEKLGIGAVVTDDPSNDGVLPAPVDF

[5] = biological target: Genome polyprotein (dengue virus type 2, UniProt P29990); experiment: flavivirus cap methylation enzyme inhibition – biochemical, confirmation dose response, primary screen (AID 588689); type: functional
Sequence of Genome polyprotein (P29990 2492-3391 limits assumed): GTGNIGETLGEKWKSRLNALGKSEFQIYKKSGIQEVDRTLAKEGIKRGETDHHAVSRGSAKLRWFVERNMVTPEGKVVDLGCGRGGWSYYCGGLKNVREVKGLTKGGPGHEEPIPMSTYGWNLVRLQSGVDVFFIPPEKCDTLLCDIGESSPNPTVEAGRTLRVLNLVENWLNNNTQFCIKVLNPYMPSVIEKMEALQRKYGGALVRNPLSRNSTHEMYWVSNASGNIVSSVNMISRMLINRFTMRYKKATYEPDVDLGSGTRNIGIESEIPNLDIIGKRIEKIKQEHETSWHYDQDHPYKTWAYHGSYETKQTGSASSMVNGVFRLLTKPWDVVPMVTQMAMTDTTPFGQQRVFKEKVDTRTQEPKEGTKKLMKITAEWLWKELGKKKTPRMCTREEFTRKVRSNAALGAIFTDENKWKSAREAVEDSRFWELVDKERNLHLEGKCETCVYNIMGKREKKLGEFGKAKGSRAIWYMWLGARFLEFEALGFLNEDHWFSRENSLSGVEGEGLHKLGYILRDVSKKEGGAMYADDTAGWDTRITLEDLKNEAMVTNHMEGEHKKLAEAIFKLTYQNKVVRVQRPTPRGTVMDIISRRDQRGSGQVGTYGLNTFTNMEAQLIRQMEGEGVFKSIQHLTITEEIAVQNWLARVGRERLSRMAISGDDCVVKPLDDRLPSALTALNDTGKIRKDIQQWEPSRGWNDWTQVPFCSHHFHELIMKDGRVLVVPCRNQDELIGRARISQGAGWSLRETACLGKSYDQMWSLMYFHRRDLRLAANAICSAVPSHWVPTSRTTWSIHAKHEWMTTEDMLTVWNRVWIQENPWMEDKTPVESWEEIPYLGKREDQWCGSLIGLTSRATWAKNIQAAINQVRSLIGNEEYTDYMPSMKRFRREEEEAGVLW

[6] = reduction of Shn3 3'UTR-driven luciferase in osteoblasts – cell-based, Clone20 osteoblasts, firefly luciferase, cherry-picked, dose response (AID 624132); type: functional;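 further: firefly luciferase luminescence from reporter carrying the Shn3 3'UTR in osteoblasts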
[7] = loss of viability in HepG2 cells – cell-based, CellTiter-Glo, cherry-picked, cytotoxicity control for Shn3 inhibitor project, dose response (AID 624134); type: functional
[8] = non-specific 3'UTR reporter inhibition in Clone20-Shn3RL – cell-based, Renilla luciferase, cherry-picked, counter-screen for Shn3 inhibitor project, dose response (AID 624133); type: functional
[9] = Fluorescence-based cell-based high throughput dose response assay for inhibitors of the interaction of nucleotide-binding oligomerization domain containing 2 (NOD2) and the receptor-interacting serine-threonine kinase 2 (RIPK2).; type: functional; settings: Homo sapiens
[10] = viability loss in HeLa cells – cytotoxicity control for MgcRacGAP inhibitor project, dose response (AID 624300); type: functional
[11] = biological target: T3, Rac GTPase-activating protein 1 (Homo sapiens, UniProt Q9H0H5); experiment: blockers of MgcRacGAP-driven Rac1 GTP hydrolysis – biochemical, ADP Hunter fluorescence, primary and confirmatory, confirmation (AID 624330); type: functional
T3 sequence (Q9H0H5 whole entry): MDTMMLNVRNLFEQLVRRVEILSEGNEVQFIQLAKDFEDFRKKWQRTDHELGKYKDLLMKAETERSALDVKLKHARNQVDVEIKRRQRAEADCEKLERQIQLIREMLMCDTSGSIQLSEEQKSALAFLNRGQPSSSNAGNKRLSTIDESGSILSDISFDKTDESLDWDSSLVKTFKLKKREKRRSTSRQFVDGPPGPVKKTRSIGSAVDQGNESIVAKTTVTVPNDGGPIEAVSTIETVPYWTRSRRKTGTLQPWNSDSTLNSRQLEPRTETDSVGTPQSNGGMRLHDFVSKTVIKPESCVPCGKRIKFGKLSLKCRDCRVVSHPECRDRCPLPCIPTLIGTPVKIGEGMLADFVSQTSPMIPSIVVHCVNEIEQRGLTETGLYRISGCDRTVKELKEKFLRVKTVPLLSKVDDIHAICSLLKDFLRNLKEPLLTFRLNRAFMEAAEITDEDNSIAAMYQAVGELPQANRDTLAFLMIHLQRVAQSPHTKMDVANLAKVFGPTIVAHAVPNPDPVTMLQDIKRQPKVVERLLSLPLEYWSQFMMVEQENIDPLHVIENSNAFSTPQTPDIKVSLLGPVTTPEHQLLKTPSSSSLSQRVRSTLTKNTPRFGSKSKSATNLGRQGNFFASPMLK

[12] = reduced cellular PGC1a acetyl-lysine signal – cell-based, cherry-picked samples, dose response (AID 720514); type: functional;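 further: potency may reflect raised or lowered acetylation signal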
[13] = biological target: T4, Carboxy-terminal domain RNA polymerase II polypeptide A small phosphatase 1 (Homo sapiens, UniProt Q9GZU7); experiment: CTDSP1 inhibitors, concentration-response, biochemical, absorbance readout, ultra-high-throughput screen actives (AID 540297); type: functional
T4 sequence (Q9GZU7 whole entry): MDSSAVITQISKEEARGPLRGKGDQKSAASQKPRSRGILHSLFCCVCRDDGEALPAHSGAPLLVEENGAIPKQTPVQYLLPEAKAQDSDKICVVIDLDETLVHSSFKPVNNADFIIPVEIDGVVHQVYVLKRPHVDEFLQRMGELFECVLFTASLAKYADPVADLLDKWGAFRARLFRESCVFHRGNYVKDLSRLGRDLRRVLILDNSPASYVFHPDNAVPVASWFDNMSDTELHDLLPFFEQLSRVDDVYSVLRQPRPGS

[14] = biological target: T5, Probable nicotinate-nucleotide adenylyltransferase (Staphylococcus aureus (strain N315), UniProt P65502); type: functional, Staphylococcus aureus subsp. aureus N315;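 on IC50 Mean: confirmatory dose-response retesting of NadD inhibitor hits first found in an ultra-high-throughput screen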
T5 sequence (P65502 whole entry): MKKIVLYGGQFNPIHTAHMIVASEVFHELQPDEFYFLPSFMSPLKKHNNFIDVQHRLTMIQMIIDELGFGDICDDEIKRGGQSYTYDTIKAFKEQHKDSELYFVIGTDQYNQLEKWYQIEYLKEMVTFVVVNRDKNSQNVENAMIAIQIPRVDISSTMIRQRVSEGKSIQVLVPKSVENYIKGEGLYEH

[15] = biological target: T5, Probable nicotinate-nucleotide adenylyltransferase; type: functional, Staphylococcus aureus subsp. aureus N315; settings: read-out: IC50_Mean
[16] = test system: INS1; experiment: INS-1E survival protection against cytokine death – cell-based, luminescence, retest, dose response (AID 449756); type: functional; settings: Rattus norvegicus;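 further: cell death triggered by IL-1 beta plus TNF-alpha plus IFN-gamma mixture; protective hits raise ATP signal compared with cytokine alone wells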
[17] = biological target: Protein Wnt-3a (Mus musculus, UniProt P27467); experiment: antagonism of Wnt3a pathway luciferase reporter – Wnt-LIGHT cells, luminescence, selectivity assay for Gli-SUFU antagonist project, dose response (AID 651570); type: functional; settings: read-out: IC50_Mean;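 further: Wnt-LIGHT reporter cells stimulated with conditioned medium from Wnt3a-producing cells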
Sequence of Protein Wnt-3a (P27467 whole entry): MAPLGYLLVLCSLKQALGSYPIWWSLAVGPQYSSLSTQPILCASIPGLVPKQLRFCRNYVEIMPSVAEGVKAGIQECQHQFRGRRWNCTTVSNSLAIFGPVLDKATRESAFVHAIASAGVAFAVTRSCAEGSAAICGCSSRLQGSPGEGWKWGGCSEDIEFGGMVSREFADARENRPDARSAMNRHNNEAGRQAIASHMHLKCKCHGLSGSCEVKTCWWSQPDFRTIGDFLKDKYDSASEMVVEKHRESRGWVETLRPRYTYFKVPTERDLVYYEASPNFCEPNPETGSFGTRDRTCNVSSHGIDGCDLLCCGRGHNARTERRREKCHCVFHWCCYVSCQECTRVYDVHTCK

[18] = biological target: T6, High affinity choline transporter 1 (Homo sapiens, UniProt Q9GZV3); experiment: human choline transporter blockers, potency – cell-based, 5-point CRC, membrane potential dye, dose response (AID 504840); type: functional
T6 sequence (Q9GZV3 whole entry): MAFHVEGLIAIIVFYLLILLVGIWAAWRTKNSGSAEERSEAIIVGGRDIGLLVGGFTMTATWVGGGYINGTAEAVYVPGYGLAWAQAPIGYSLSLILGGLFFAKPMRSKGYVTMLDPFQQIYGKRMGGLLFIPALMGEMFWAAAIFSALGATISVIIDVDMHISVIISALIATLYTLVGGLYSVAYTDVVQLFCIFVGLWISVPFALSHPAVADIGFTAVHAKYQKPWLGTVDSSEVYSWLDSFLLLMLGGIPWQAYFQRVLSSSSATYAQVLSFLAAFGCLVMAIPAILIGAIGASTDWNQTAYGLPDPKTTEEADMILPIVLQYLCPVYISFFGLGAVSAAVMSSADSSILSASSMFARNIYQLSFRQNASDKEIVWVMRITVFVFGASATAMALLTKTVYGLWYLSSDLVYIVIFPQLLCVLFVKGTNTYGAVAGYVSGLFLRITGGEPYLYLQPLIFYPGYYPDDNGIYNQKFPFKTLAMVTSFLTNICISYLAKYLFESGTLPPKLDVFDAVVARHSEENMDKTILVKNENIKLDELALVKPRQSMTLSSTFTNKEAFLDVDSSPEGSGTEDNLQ

[19] = biological target: T6, High affinity choline transporter 1; experiment: human choline transporter blockers, potency – cell-based, 10-point CRC, membrane potential dye, dose response (AID 588401); type: functional;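 further: membrane potential dye fluorescence of choline-evoked depolarization via CHT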
[20] = viability of uninfected HEp-2 cells – cell-based, HTS, cytotoxicity control for RSV inhibitor project, dose response (AID 2410); type: functional; settings: human respiratory syncytial virus
[21] = Luminescence Cell-Based Dose Confirmation HTS to Identify Activators of 5'UTR Stem-Loop Driven Alpha-Synuclein mRNA Translation in H4 Neuroglioblastoma Cells. [Related pubchem assays: 1829 (Project Summary), 1814 (Primary HTS)]; type: functional
[22] = Luminescence Cell-Based Dose Response HTS to Identify Activators of Luciferase Translation or Activity in H4 […] Cells. [Related pubchem assays: 1829 (Project Summary), 1814 (Primary HTS)]; type: functional
[23] = test system: H4; experiment: Luminescence Cell-Based Dose Response HTS to Identify Activators of 5'UTR Stem-Loop Driven Prion Protein mRNA Translation in H4 Neuroglioblastoma Cells. [Related pubchem assays: 1829 (Project Summary), 1814 (Primary HTS)]; type: functional; settings: Homo sapiens
[24] = test system: HeLa; experiment: ATP-based viability loss in HeLa cells – cell-based, CellTiter-Glo luminescence, cherry-pick samples, cytotoxicity control for MITF activator project, dose response (AID 540259); type: functional; settings: Homo sapiens
[25] = biological target: T7, Small ubiquitin-related modifier 1 (Homo sapiens, UniProt P63165); experiment: SUMO1 protein interaction blockers, potency – biochemical, fluorescence polarization, uHTS hits, dose response (AID 624382); type: functional; settings: read-out: IC50_Mean
T7 sequence (P63165 whole entry): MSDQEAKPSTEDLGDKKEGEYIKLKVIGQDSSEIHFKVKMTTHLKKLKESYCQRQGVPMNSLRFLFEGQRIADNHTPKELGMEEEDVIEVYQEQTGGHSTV

[26] = biological target: T7, Small ubiquitin-related modifier 1; experiment: SUMO1 protein-protein binding blockers, potency – biochemical, FRET, dose response (AID 624383); type: functional; settings: read-out: IC50_Mean

O=C(Nc1ccccc1)C1=C(c2ccccc2)S(=O)(=O)CCS1(=O)=O
EC50 [1]: 1.31 µM (active) | EC50 [2]: 2.06 µM (active) | AC50 [3]: 1.42 µM (active) | EC50 [4]: 682 nM (active) | IC50 [5]: > 100 µM (active) | AC50 [6]: 1.37 µM (active) | AC50 [7]: 15.4 µM (active) | AC50 [8]: 10.3 µM (active) | IC50 [9]: 3.59 µM (active) | CC50 [10]: 71.9 µM (active) | IC50 [11]: 123 µM (active) | AC50 [12]: 8.27 µM (active)

C[C@@H]1CN([C@H](C)CO)C(=O)c2cc(NC(=O)c3ccncc3)ccc2O[C@@H]1CN(C)C(=O)Nc1ccccc1
IC50 [13]: 12.8 µM (active) | IC50 [14]: 26.9 µM (active) | IC50 [15]: 35.2 µM (active)

CCCCSc1nc2sc3c(c2c(=O)n1-c1ccc(C)cc1)CCN(C)C3
AC50 [16]: 10.1 µM (active) | IC50 [17]: 10.8 µM (active)

COc1cccc(CCNC(=O)c2ccc(OC)c(OC3CCN(C(C)C)CC3)c2)c1
IC50 [18]: 5 µM (active) | IC50 [19]: 3.98 µM (active)

COc1ccccc1N1CCN(C2=Nc3cccc4cccc2c34)CC1
CC50 [20]: 25.4 µM (active) | EC50 [21]: 43.3 µM (active) | EC50 [22]: 19.1 µM (active) | EC50 [23]: 18.5 µM (active) | AC50 [24]: 27.1 µM (active)

O=C(Nc1ccc(N2CCCC2)cc1)c1cc(Br)ccc1Cl
IC50 [14]: 21.7 µM (active) | IC50 [15]: 35.9 µM (active)

Oc1ccc(N=Nc2ccccc2)cc1
AC50 [24]: 98.1 µM (active) | IC50 [11]: 70.9 µM (active)

Cn1c(-c2ccc(Cl)cc2)cnc1NCc1cc2c(cc1[N+](=O)[O-])OCO2
CC50 [10]: 100 µM (active) | IC50 [11]: 73.5 µM (active)

COc1ccc(C(=O)Nc2nc3cc4c(cc3s2)OCCO4)c(OC)c1
IC50 [25]: > 66.6 µM (inactive) | IC50 [26]: 2.77 µM (active)

O=C(COC(=O)CCC(=O)c1ccc(F)cc1)Nc1ccc2[nH]c(O)nc2c1
IC50 [25]: > 66.6 µM (inactive) | IC50 [26]: 17.6 µM (active)

Cc1ccc(S(=O)(=O)Nc2ccc(Nc3nccn4c(-c5cccc(OC(F)(F)F)c5)cnc34)cc2)cc1
IC50 [14]: 16.2 µM (active) | IC50 [15]: 27.2 µM (active)
